Measured values from publication doi:10.1101/2021.08.28.458030v1 (biorxiv, 2021).

Legend:
[1] = biological target: lactate dehydrogenase B (LDHB) (Homo sapiens, UniProt P07195); assay: NADH fluorometric LDH assay; format: biochemical
[2] = biological target: T1, lactate dehydrogenase A (LDHA) (Homo sapiens, UniProt P00338); assay: NADH fluorometric LDH assay; format: biochemical
[3] = biological target: T1, lactate dehydrogenase A (LDHA); assay: biochemical
[4] = biological target: T2, CASTOR1 (Homo sapiens, UniProt Q8WTX7); assay: equilibrium dialysis MS; format: binding; conditions: 150 mM ammonium acetate pH 7.4, 4 C, metabolite pool
T2 sequence (Q8WTX7 1-329): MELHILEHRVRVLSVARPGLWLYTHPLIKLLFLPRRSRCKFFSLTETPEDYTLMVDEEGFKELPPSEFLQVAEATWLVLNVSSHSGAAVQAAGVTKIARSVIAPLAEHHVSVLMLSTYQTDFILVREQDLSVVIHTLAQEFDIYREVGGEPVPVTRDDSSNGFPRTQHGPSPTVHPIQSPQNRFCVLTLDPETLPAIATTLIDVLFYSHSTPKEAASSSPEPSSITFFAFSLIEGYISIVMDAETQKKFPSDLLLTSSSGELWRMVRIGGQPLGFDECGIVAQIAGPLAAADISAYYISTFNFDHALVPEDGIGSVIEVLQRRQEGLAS

Chain of lactate dehydrogenase B (LDHB) (P07195 2-334): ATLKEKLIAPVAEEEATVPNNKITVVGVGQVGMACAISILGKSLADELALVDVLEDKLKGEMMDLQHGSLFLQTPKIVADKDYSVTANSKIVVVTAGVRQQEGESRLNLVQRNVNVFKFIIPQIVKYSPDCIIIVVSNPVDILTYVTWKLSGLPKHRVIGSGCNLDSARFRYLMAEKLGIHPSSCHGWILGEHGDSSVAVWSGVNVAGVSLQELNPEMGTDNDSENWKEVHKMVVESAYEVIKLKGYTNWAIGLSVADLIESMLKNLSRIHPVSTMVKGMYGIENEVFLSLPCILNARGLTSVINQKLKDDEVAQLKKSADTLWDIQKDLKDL

IC50 [1] | IC50 [2] | IC50 [3] | equilibrium dialysis MS (MIDAS) [4] | Compound
14900 µM | 5060 µM |  |  | Nc1ncnc2c1ncn2[C@@H]1O[C@H](COP(=O)(O)OP(=O)(O)O)[C@@H](O)[C@H]1O [ADP]
51400 µM | 24400 µM |  |  | Nc1ncnc2c1ncn2[C@@H]1O[C@H](COP(=O)(O)O)[C@@H](O)[C@H]1O [AMP]
> 100 µM |  |  |  | CC(=O)SCCNC(=O)CCNC(=O)[C@H](O)C(C)(C)COP(=O)(O)OP(=O)(O)OC[C@H]1O[C@@H](n2cnc3c(N)ncnc32)[C@H](O)[C@@H]1OP(=O)(O)O [C2:0-CoA]
> 100 µM |  |  |  | CCCC(=O)SCCNC(=O)CCNC(=O)[C@H](O)C(C)(C)COP(=O)(O)OP(=O)(O)OC[C@H]1O[C@@H](n2cnc3c(N)ncnc32)[C@H](O)[C@@H]1OP(=O)(O)O [C4:0-CoA]
> 100 µM |  |  |  | CCCCCCCC(=O)SCCNC(=O)CCNC(=O)[C@H](O)C(C)(C)COP(=O)(O)OP(=O)(O)OC[C@H]1O[C@@H](n2cnc3c(N)ncnc32)[C@H](O)[C@@H]1OP(=O)(O)O [C8:0-CoA]
> 100 µM | > 100 µM |  |  | CCCCCCCCCCCC(=O)SCCNC(=O)CCNC(=O)[C@H](O)C(C)(C)COP(=O)(O)OP(=O)(O)OC[C@H]1O[C@@H](n2cnc3c(N)ncnc32)[C@H](O)[C@@H]1OP(=O)(O)O [C12:0-CoA]
> 100 µM | ~1 µM | 1.54 µM |  | CCCCCCCCCCCCCCCC(=O)SCCNC(=O)CCNC(=O)[C@H](O)C(C)(C)COP(=O)(O)OP(=O)(O)OC[C@H]1O[C@@H](n2cnc3c(N)ncnc32)[C@H](O)[C@@H]1OP(=O)(O)O [C16:0-CoA]
> 100 µM | ~1 µM | 0.8 µM |  | CCCCCCCC/C=C\CCCCCCCC(=O)SCCNC(=O)CCNC(=O)[C@H](O)C(C)(C)COP(=O)(O)OP(=O)(O)OC[C@H]1O[C@@H](n2cnc3c(N)ncnc32)[C@H](O)[C@@H]1OP(=O)(O)O [C18:1-CoA]
> 100 µM |  | 1.01 µM |  | CCCCCCCCCCCCCCCCCCCC(=O)SCCNC(=O)CCNC(=O)[C@H](O)C(C)(C)COP(=O)(O)OP(=O)(O)OC[C@H]1O[C@@H](n2cnc3c(N)ncnc32)[C@H](O)[C@@H]1OP(=O)(O)O [C20:0-CoA]
 |  |  | CASTOR1 enriched arginine (Fig. 1C) | N=C(N)NCCC[C@H](N)C(=O)O [arginine]
